biological target: T1, thrombin receptor (Homo sapiens, UniProt P25116); assay: High throughput thrombin receptor radioligand binding assay ([3H]haTRAP, platelet membranes); conditions: [3H]haTRAP binding to platelet membranes
T1 construct: tissue North Jersey Blood Center (East Orange, N.J.); host or cells: platelet membranes prepared from platelet concentrates
T1 sequence (P25116 22-425): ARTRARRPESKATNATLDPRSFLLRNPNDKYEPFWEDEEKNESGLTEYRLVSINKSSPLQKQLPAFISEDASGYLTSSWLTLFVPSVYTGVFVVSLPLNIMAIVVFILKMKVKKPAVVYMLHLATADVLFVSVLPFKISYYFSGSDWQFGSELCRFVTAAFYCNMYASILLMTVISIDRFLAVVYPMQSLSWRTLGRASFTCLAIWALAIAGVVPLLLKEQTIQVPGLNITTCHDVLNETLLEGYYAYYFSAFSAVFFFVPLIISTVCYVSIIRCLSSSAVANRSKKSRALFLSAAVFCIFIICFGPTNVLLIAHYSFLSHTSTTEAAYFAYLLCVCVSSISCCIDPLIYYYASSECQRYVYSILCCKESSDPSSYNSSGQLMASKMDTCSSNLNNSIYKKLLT
Experimental: A(pF-F)R(ChA)(hR)(I2—Y)—NH2 (1.03 mg) and 10% Pd/C (5.07 mg) were suspended in DMF (250 μl) and diisopropylethylamine (10 μl). The vessel was attached to the tritium line, frozen in liquid nitrogen and evacuated. Tritium gas (342 mCi) was then added to the flask, which was stirred at room temperature for 2 hours. At the completion of the reaction, the excess tritium was removed and the reacted peptide solution was diluted with DMF (0.5 ml) and filtered to remove the catalyst. The collected DMF solution of the crude peptide was diluted with water and freeze dried to remove the labile tritium. The solid peptide was redissolved in water and the freeze drying process repeated. The tritiated peptide ([^3H]haTRAP) was dissolved in 0.5 ml of 0.1% aqueous TFA and purified by HPLC using the following conditions: column, Vydac™ C18, 25 cm×9.4 mm I.D.; mobile phase, (A) 0.1% TFA in water, (B) 0.1% TFA in CH3CN; gradient, (A/B) from 100/0 to 40/60 over 30 min; flow rate, 5 ml/min; detection, UV at 215 nm. The radiochemical purity of [^3H]haTRAP was 99% as analyzed by HPLC. A batch of 14.9 mCi at a specific activity of 18.4 Ci/mmol was obtained.
Platelet membranes were prepared using a modification of the method of Natarajan et al. (Natarajan et al, Int. J. Peptide Protein Res. 45:145-151 (1995)) from 20 units of platelet concentrates obtained from the North Jersey Blood Center (East Orange, N.J.) within 48 hours of collection. All steps were carried out at 4° C. under approved biohazard safety conditions. Platelets were centrifuged at 100×g for 20 minutes at 4° C. to remove red cells. The supernatants were decanted and centrifuged at 3000×g for 15 minutes to pellet platelets. Platelets were re-suspended in 10 mM Tris-HCl, pH 7.5, 150 mM NaCl, 5 mM EDTA, to a total volume of 200 ml and centrifuged at 4400×g for 10 minutes. This step was repeated two additional times. Platelets were re-suspended in 5 mM Tris-HCl, pH 7.5, 5 mM EDITA to a final volume of approximately 30 ml and were homogenized with 20 strokes in a Dounce™ homogenizer. Membranes were pelleted at 41,000×g, re-suspended in 40-50 ml 20 mM Tris-HCl, pH 7.5, 1 mM EDTA, 0.1 mM dithiothreitol, and 10 ml aliquots were frozen in liquid N2 and stored at −80° C. To complete membrane preparation, aliquots were thawed, pooled, and homogenized with 5 strokes of a Dounce homogenizer. Membranes were pelleted and washed 3 times in 10 mM triethanolamine-HCl, pH 7.4, 5 mM EDTA, and re-suspended in 20-25 ml 50 mM Tris-HCl, pH 7.5, 10 mM MgCl2, 1 mM EGTA, and 1% DMSO. Aliquots of membranes were frozen in liquid N2 and stored at −80° C. Membranes were stable for at least 3 months. 20 units of platelet concentrates typically yielded 250 mg of membrane protein. Protein concentration was determined by a Lowry assay (Lowry et al., J. Biol. Chem., 193:265-275 (1951)).
Thrombin receptor antagonists were screened using a modification of the thrombin receptor radioligand binding assay of Ahn et al. (Ahn et al., Mol. Pharmacol, 51:350-356 (1997)). The assay was performed in 96 well Nunc plates (Cat. No. 269620) at a final assay volume of 200 μl. Platelet membranes and [^3H]haTRAP were diluted to 0.4 mg/ml and 22.2 nM, respectively, in binding buffer (50 mM Tris-HCl, pH 7.5, 10 mM MgCl2, 1 mM EGTA, 0.1% BSA). Stock solutions (10 mM in 100% DMSO) of test compounds were further diluted in 100% DMSO. Unless otherwise indicated, 10 μl of diluted compound solutions and 90 μl of radioligand (a final concentration of 10 nM in 5% DMSO) were added to each well, and the reaction was started by the addition of 100 μl of membranes (40 μg protein/well). […] Compounds were tested at three concentrations (0.1, 1 and 10 μM). The plates were covered and vortex-mixed gently on a Lab-Line™ Titer Plate Shaker for 1 hour at room temperature. Packard UniFilter™ GF/C filter plates were soaked for at least 1 hour in 0.1% polyethyleneimine. […]

| IC50 | Ki | Structure (SMILES) |
| --- | --- | --- |
| 4.8 nM | 3.1 nM | O=C1C[C@H]2[C@@H]3CCCC[C@H]3[C@H](/C=C/c3ccc(-c4cccc(F)c4)cn3)C[C@H]2O1 [Compound 3] |
| 20 nM | 13 nM | O=C1C[C@H]2[C@@H]3CCCC[C@H]3[C@H](/C=C/c3ccc(-c4cc(Cl)ccc4Cl)cn3)C[C@H]2O1 [Compound 4] |
| 6.7 nM | 4.3 nM | N#Cc1cccc(-c2ccc(/C=C/[C@@H]3C[C@H]4OC(=O)C[C@H]4[C@@H]4CCCC[C@H]43)nc2)c1 [Compound 5] |

Further lines, the compound ahead of its results:

| Structure (SMILES) | IC50 | Ki |
| --- | --- | --- |
| C[C@@H]1[C@@H](C)[C@H](/C=C/c2ccc(-c3ccccc3C#N)cn2)C[C@@H]2OC(=O)C[C@@H]12 [Compound 1] | 45 nM | – |
| C[C@@H]1[C@@H](C)[C@H](/C=C/c2ccc(-c3ccccc3C#N)cn2)C[C@H]2OC(=O)C[C@@H]12 [Compound 2] | 16 nM | 11 nM |

Source: patent publication US8022088B2, “Substituted bicyclic and tricyclic thrombin receptor antagonists” (Schering Corporation, priority 2006, dated 2011)
